# Assay results as given in ChEMBL document CHEMBL1148347, “Identification of non-phosphate-containing small molecular weight inhibitors of the tyrosine kinase p56 Lck SH2 domain via in silico screening against the pY + 3 binding site” (J Med Chem, 2004).
# The source made the active and inactive calls. The calls are words filed in the database; no cut-off is given here.
# Organism: Mus musculus
# Experiment: Inhibition of [3H]-thymidine incorporation into murine mixed lymphocyte culture at 100 uM (Significant anti-proliferative activity)
# Format: functional
row,Structure (SMILES),inhibition
1,O=C(O)c1cccc(/N=C2\C(Cl)=C(O)OC2OC(=O)c2ccccc2)c1 (configuration not stated),Active
2,COc1ccc(OC)c(NC(=O)CCNC(=O)Cn2cnc3ccccc3c2=O)c1,Active
3,Cc1ccc(NC(=O)CN2C(=O)S/C(=C\c3ccc(-c4cc(C(=O)O)ccc4C)o3)C2=O)cc1,Active
4,Cc1ccc(NC(=O)c2cccc(NC(=O)c3ccccc3C(=O)O)c2)cc1C,Active
5,COc1ccc([N+](=O)[O-])cc1CSc1nnc(N)s1,Active
6,O=C(NCc1cccs1)c1cccnc1SCc1cccc(Br)c1,Active
7,O=C(O)CSc1cccnc1Sc1ccc(Cl)cc1,Active
8,O=C(O)c1ccccc1SCc1cc(O)nc(O)n1,Active
9,Cc1ccc(C(=O)O)cc1NC(=O)CCC(=O)O,Active
10,COc1ccc(-n2c(SCC(=O)Nc3ccccc3OC)nc3nnc(C)c-3c2N)cc1,Active
11,O=C(O)CC1SC(N/N=C2/CCCc3ccccc32)=NC1=O (configuration not stated),Active

# Target: Tyrosine-protein kinase Lck (Homo sapiens, UniProt P06239)
# Sequence (P06239 whole entry, the tested form may be a part): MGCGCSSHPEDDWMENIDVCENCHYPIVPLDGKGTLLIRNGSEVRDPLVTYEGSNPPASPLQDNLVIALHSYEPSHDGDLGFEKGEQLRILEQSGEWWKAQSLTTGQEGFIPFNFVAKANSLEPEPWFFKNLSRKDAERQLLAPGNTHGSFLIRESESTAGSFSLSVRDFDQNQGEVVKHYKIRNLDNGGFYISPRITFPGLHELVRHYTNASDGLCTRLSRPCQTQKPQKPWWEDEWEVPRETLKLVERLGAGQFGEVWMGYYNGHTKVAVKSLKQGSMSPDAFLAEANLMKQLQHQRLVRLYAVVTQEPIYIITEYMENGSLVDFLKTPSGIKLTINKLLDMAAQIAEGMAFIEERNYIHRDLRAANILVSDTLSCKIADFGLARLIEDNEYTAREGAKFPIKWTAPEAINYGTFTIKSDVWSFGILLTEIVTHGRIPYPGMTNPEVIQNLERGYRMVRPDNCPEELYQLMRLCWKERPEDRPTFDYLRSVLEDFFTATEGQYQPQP
# Experiment: Dissociation constant for p56 Lck tyrosine kinase SH2 domain by fluorescence titration
row,Kd [µM],Structure (SMILES)
1,6,Cc1ccc(NC(=O)CN2C(=O)S/C(=C\c3ccc(-c4cc(C(=O)O)ccc4C)o3)C2=O)cc1
